In ChEMBL document CHEMBL1153888, “Targeted intracellular protein degradation induced by a small molecule: En route to chemical proteomics” (Bioorg Med Chem Lett, 2008) one finds IC50 and Activity data, which are given here for two compounds.

The source made the active and inactive calls. The calls are words filed in the database; no cut-off is given here.

Test [1] addresses E3 ubiquitin-protein ligase Mdm2 (Homo sapiens, UniProt Q00987). In words: Binding affinity to MDM2.
In test [2] the test system is HeLa. In words: Induction of intracellular protein degradation in human HeLa cells expressing androgen receptor assessed as decrease in total AR protein levels at 10 uM after 7 hrs by Western blot. The class given is functional, cell-based. (A western blot detects proteins with antibodies after separation by electrophoresis.)
Test [3] concerns HeLa. Put plainly: Inhibition of intracellular protein degradation in human HeLa cells expressing androgen receptor assessed as effect on total AR protein levels at 10 uM after 7 hrs by Western blot in presence of epoxomicin. Format: functional, cell-based.

Sequence of E3 ubiquitin-protein ligase Mdm2 (Q00987 whole entry): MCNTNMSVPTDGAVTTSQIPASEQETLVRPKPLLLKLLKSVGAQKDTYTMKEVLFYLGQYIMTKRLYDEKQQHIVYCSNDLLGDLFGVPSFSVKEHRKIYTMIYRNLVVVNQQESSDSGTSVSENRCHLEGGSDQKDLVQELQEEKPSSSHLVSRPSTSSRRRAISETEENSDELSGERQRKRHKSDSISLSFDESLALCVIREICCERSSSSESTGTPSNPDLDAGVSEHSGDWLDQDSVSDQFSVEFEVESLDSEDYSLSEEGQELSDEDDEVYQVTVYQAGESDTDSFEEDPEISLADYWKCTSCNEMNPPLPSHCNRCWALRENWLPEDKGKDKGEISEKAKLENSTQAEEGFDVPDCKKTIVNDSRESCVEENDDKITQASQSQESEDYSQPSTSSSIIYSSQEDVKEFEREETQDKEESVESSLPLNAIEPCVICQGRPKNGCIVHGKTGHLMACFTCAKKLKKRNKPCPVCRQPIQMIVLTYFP

In test [1], `COc1ccc(C2=NC(c3ccc(Cl)cc3)C(c3ccc(Cl)cc3)N2)c(OC(C)C)c1` (stereo not drawn) gave an IC50 of 90 nM. This lies in the double-digit nanomolar range. Take `COc1ccc(C2=N[C@H](c3ccc(Cl)cc3)[C@H](c3ccc(Cl)cc3)N2C(=O)N2CCN(CC(=O)NCCOCCOCCOCC(=O)Nc3ccc(OC[C@](C)(O)C(=O)Nc4ccc([N+](=O)[O-])c(C(F)(F)F)c4)cc3)C(=O)C2)c(OC(C)C)c1`: the result with HeLa [2] and in the test on HeLa [3] was Active.

In general, IC50 refers to the concentration that inhibits the measured activity by half.
